Source: article PMC6724035, “Evaluation of Tumor-Targeting Properties of an Antagonistic Bombesin Analogue RM26 Conjugated with a Non-Residualizing Radioiodine Label Comparison with a Radiometal-Labelled Counterpart” (Pharmaceutics, 2019)
Where a SMILES comes first, the peptide text is derived from it. [ ]: non-standard residue; d: D form. Tyr(3-I) = N[C@@H](Cc1ccc(O)c(I)c1)C(=O)O; Sta = CC(C)C[C@H](N)[C@@H](O)CC(=O)O; AEEA = NCCOCCOCC(=O)O

What was measured:
[1] = in vivo; details: mouse, iv; for tissue to tissue ratio at 0.5 h / tissue to tissue ratio at 3 h / tissue to tissue ratio at 24 h: female, BALB/c nu/nu, total radioactivity; for tissue uptake at 0.5 h / tissue uptake at 3 h / tissue uptake at 24 h: 40 pmol, 40 pmol i.v.; for tissue uptake at 0.5 h: 0.5 h after injection; for tissue uptake at 3 h: 3 h after injection; for tissue uptake at 24 h: 24 h after injection
Method: (§1) Animal studies were planned and performed in agreement with EU Directive 2010/63/EU for animal experiments and Swedish national legislation concerning protection of laboratory animals. Experiments were approved by the Ethics Committee for Animal Research in Uppsala (C4/16, 26 February 2016). Biodistribution studies were performed in female BALB/C nu/nu mice purchased from Scanbur A/S (Karlslunde, Denmark). GRPR-expressing xenografts were established by subcutaneous injection of 5 × 10^6 PC-3 cells/mouse in the right hind leg of mice 3 weeks before the experiment. The animals were randomized into groups of four mice for each data point.
(§2) Mice were euthanized followed by dislocation of their neck at 0.5 h after injection and blood samples were collected by heart puncture. At 3 and 24 h after injection, mice were euthanized by an intraperitoneal injection of anaesthetic solution (20 µL of solution per gram of body weight: Ketalar, 10 mg/mL; Rompun, 1 mg/mL) followed by heart puncture. Salivary glands, thyroid, lung, liver, spleen, pancreas, stomach, small intestine, kidneys, tumour, muscle, and bone were collected and weighed. The organ radioactivity was measured in a gamma-counter and uptake values of organs were calculated as percentage of injected dose per gram tissue (% ID/g). To test the in vivo binding specificity, a group of mice was co-injected with 7.5 nmol of non-labelled peptide (NOTA-PEG4-RM26), and biodistribution was measured at 0.5 h after injection.

[2] = test system: GRPR-expressing PC-3 tumour xenograft; experiment: in vivo; details: PC-3 xenograft
Method: as §1, §2

[3] = test system: PC-3 cells; experiment: Cell-associated radioactivity in presence of lysosomotropic bases or sodium azide/2-deoxyglucose; type: cell-based, human; details: 1 nM, 100 µM chloroquine, 20 mM ammonium chloride, 2-8 h at 37 °C
Method: Additionally, PC-3 cells were incubated with 1 nM of [^125I]I-Tyr-PEG2-RM26 in presence of 20 mM sodium azide/10 mM 2-deoxyglucose at 37 °C for 8 h. […] At predetermined time points (2, 4, and 8 h), media from a set of three dishes was removed, cells were detached by trypsin-EDTA solution, re-suspended, and radioactivity in cells was measured.

[4] = test system: PC-3 cells; experiment: Cellular processing assay (membrane-bound and internalized radioactivity); type: cell-based, human; details: 1 nM, 37 °C
Method: At predetermined time points (1, 2, 4, 8, 24 h), incubation media was aspirated, cells were washed with serum-free media, and membrane-bound and internalized radioactivity were collected using the method described earlier. The membrane-bound radiolabelled conjugate were removed from cells by treatment with 4 M urea solution in a 0.1 M glycine buffer, pH 2, for 5 min on ice. The cell debris containing the internalized conjugate was detached by treatment with 1 M NaOH. Radioactivity of samples was measured, and percentage of membrane-bound, internalized and total radioactivity was calculated. The experiments were performed in triplicate.

[5] = 0.5 h; 300 µg phosphoramidon co-injected; non-tumour bearing NMRI mice
Method: Two groups of 4 mice were used for this experiment. Biodistribution of [^125I]I-Tyr-PEG2-RM26 was evaluated in female NMRI mice (weight: 29.6 ± 1.7 g). Non-tumour bearing mice as a control group were injected with 40 pmol of [^125I]I-Tyr-PEG2-RM26 (30 kBq, 100 μL in PBS) into the tail vein. Another group of mice was injected with same activity by co-injection of PA (15 µL of 20 mg/mL stock solution, 300 µg). After 0.5 h, mice were euthanized by dislocation of their neck, and blood samples were collected. Salivary glands, thyroid, lung, liver, spleen, pancreas, stomach, small intestine, kidneys, […], muscle, and bone were collected and weighed. The organ radioactivity was measured in a gamma-counter and uptake values of organs were calculated as percentage injected dose per gram tissue (% ID/g).

[6] = test system: GRPR-expressing PC-3 tumour xenograft; details: 0.5 h after injection; co-injection of non-labelled NOTA-PEG4-RM26
Method: as §1
as §2, with “Salivary glands, thyroid, lung, liver, spleen, pancreas, stomach, small intestine, kidneys, tumour, muscle, and bone were collected and weighed.” left out

[7] = Method: Lipophilicity was determined as the logarithm of partition coefficient, logP, of the radiolabelled compound between n-octanol and water. To determine the lipophilicity of both radioconjugates, 500 µL of n-octanol was added to a tube containing the same volume of Milli-Q water. 1 pmol (10 kBq) of radioconjugate was added. The mixture was vigorously vortexed for 1–2 min and then centrifuged. Aliquots of 100 μL were taken from each phase and their radioactivity was measured by an automated gamma-counter. The partition coefficient was calculated as the average log of a ratio of the radioactivity in organic and aqueous fractions. Each measurement was repeated in triplicate.
[8] = small intestine, small intestine

CC(C)C[C@H](NC(=O)C[C@H](O)[C@H](CC(C)C)NC(=O)[C@H](Cc1c[nH]cn1)NC(=O)CNC(=O)[C@@H](NC(=O)[C@H](C)NC(=O)[C@H](Cc1c[nH]c2ccccc12)NC(=O)[C@H](CCC(N)=O)NC(=O)[C@@H](Cc1ccccc1)NC(=O)COCCOCCNC(=O)[C@@H](N)Cc1ccc(O)c(I)c1)C(C)C)C(N)=O [[^125I]I-Tyr-PEG2-RM26] (H-[Tyr(3-I)][AEEA][dF]QWAVGH[Sta]L-NH2)
tissue to tissue ratio at 0.5 h ([1]; tumour and bone): 1.9 ± 0.2 | tissue to tissue ratio at 3 h ([1]; tumour and bone): 1.9 ± 0.3 | tissue to tissue ratio at 0.5 h ([1]; tumour and kidney): 0.5 | tissue to tissue ratio at 3 h ([1]; tumour and kidney): 0.3 ± 0.1 | tissue to tissue ratio at 24 h ([1]; tumour and kidney): 0.1 | tissue to tissue ratio at 0.5 h ([1]; tumour and liver): 0.8 ± 0.2 | tissue to tissue ratio at 3 h ([1]; tumour and liver): 0.8 ± 0.2 | tissue to tissue ratio at 24 h ([1]; tumour and liver): 0.6 ± 0.5 | tissue to tissue ratio at 0.5 h ([1]; tumour and lung): 0.8 | tissue to tissue ratio at 3 h ([1]; tumour and lung): 0.6 ± 0.1 | tissue to tissue ratio at 24 h ([1]; tumour and lung): 1 ± 0.6 | tissue to tissue ratio at 0.5 h ([1]; tumour and muscle): 3.6 ± 0.4 | tissue to tissue ratio at 3 h ([1]; tumour and muscle): 3.7 ± 0.6 | tissue to tissue ratio at 0.5 h ([1]; tumour and pancreas): 0.7 ± 0.1 | tissue to tissue ratio at 3 h ([1]; tumour and pancreas): 0.9 ± 0.1 | tissue to tissue ratio at 0.5 h ([1]; tumour and salivary gland): 1.3 ± 0.6 | tissue to tissue ratio at 3 h ([1]; tumour and salivary gland): 1.2 ± 0.3 | tissue to tissue ratio at 0.5 h ([1]; tumour and small intestine): 1.1 ± 0.6 | tissue to tissue ratio at 3 h ([1]; tumour and small intestine): 1.3 ± 0.4 | tissue to tissue ratio at 0.5 h ([1]; tumour and spleen): 1.3 ± 0.2 | tissue to tissue ratio at 3 h ([1]; tumour and spleen): 1.1 ± 0.1 | tissue to tissue ratio at 0.5 h ([1]; tumour and stomach): 0.6 ± 0.2 | tissue to tissue ratio at 3 h ([1]; tumour and stomach): 0.5 ± 0.1 | tissue to tissue ratio at 0.5 h ([1]; tumour and thyroid): 1 ± 0.5 | tissue to tissue ratio at 3 h ([1]; tumour and thyroid): 1.2 ± 0.6 | tissue to tissue ratio at 0.5 h ([1]; tumour and whole blood): 0.7 | tissue to tissue ratio at 3 h ([1]; tumour and whole blood): 0.8 ± 0.1 | tissue to tissue ratio at 24 h ([1]; tumour and whole blood): 6 ± 4 | tissue uptake at 0.5 h ([1]; blood, blood): 10.2 ± 1.5 %ID/g | tissue uptake at 3 h ([1]; blood, blood): 2.9 ± 1.5 %ID/g | tissue uptake at 24 h ([1]; blood, blood): 0.02 %ID/g | tissue uptake at 0.5 h ([1]; bone, bone): 3.8 ± 0.8 %ID/g | tissue uptake at 3 h ([1]; bone, bone): 1.1 ± 0.5 %ID/g | tissue uptake at 0.5 h ([1]; kidney, kidney): 13.2 ± 1.8 %ID/g | tissue uptake at 3 h ([1]; kidney, kidney): 6.1 ± 1.1 %ID/g | tissue uptake at 24 h ([1]; kidney, kidney): 1.5 ± 0.3 %ID/g | tissue uptake at 0.5 h ([1]; liver, liver): 8.9 ± 3.1 %ID/g | tissue uptake at 3 h ([1]; liver, liver): 2.6 ± 1.1 %ID/g | tissue uptake at 24 h ([1]; liver, liver): 0.2 %ID/g | tissue uptake at 0.5 h ([1]; lung, lung): 9.1 ± 1.2 %ID/g | tissue uptake at 3 h ([1]; lung, lung): 3.5 ± 1.4 %ID/g | tissue uptake at 24 h ([1]; lung, lung): 0.2 ± 0.1 %ID/g | tissue uptake at 0.5 h ([1]; muscle, muscle): 2 %ID/g | tissue uptake at 3 h ([1]; muscle, muscle): 0.6 ± 0.3 %ID/g | tissue uptake at 0.5 h ([1]; pancreas, pancreas): 10.1 ± 1.2 %ID/g | tissue uptake at 3 h ([1]; pancreas, pancreas): 2.3 ± 0.6 %ID/g | tissue uptake at 0.5 h ([1]; salivary gland, salivary gland): 6.6 ± 3.7 %ID/g | tissue uptake at 3 h ([1]; salivary gland, salivary gland): 2 ± 1.2 %ID/g | tissue uptake at 0.5 h [1, 8]: 7.3 ± 3 %ID/g | tissue uptake at 3 h [1, 8]: 1.8 ± 0.7 %ID/g | tissue uptake at 0.5 h ([1]; spleen, spleen): 5.4 ± 0.8 %ID/g | tissue uptake at 3 h ([1]; spleen, spleen): 2 ± 0.8 %ID/g | tissue uptake at 0.5 h ([1]; stomach, stomach): 13.2 ± 7.2 %ID/g | tissue uptake at 3 h ([1]; stomach, stomach): 4.6 ± 2.7 %ID/g | tissue uptake at 24 h ([1]; stomach, stomach): 0.1 %ID/g | tissue uptake at 0.5 h ([1]; thyroid, thyroid): 8.2 ± 3.7 %ID/g | tissue uptake at 3 h ([1]; thyroid, thyroid): 2.2 ± 1.6 %ID/g | tissue uptake at 0.5 h ([1]; tumour, tumour, non-blocked): 7 ± 0.8 %ID/g | tissue uptake at 3 h ([1]; tumour, tumour): 2.1 ± 0.8 %ID/g | Decrease of tumour uptake at 3 h compared to 0.5 h after injection [2]: more than 3 fold | Cell-bound activity and retention in presence of chloroquine and ammonium chloride vs control [3]: considerably higher compared to control | Cellular processing pattern [4]: quite fast internalization during the first hour | Influence of PA co-injection on blood clearance rate or uptake in normal non-targeted organs and tissues [5]: did not show any significant influence | Uptake in GRPR-positive organs (pancreas, small intestines, stomach) after co-injection of PA [5]: No significant increase | Uptake in pancreas, blocked vs non-blocked group [6]: significantly (p < 0.05) reduced | logP [7]: 1 ± 0.1
